Laboratory results as given in paper PMC11200585, “Prospects for Prostate Cancer Chemotherapy: Cytotoxic Evaluation and Mechanistic Insights of Quinolinequinones with ADME/PK Profile” (Biomedicines, 2024).

What was measured:
Type in all cases: cell-based, human
TK-10 [1] = assay: NCI-60 one-dose screen (renal cancer); conditions: 10 µM single dose, 48 h
Method: (§1) The obtained quinolinequinones were submitted to NCI, Bethesda, USA, and, as per standard protocol of NCI, all compounds were evaluated for their antiproliferative activity at single-dose assay (10 µM concentration in DMSO) on a panel of 60 cancer cell lines derived from leukemia, non-small-cell lung, colon, CNS, melanoma, ovarian, renal, prostate, and breast, as per protocol. Tested compounds were added to the microtiter culture plates followed by incubation for 48 h at 37 °C. Sulforhodamine B (SRB), a protein-binding dye, is used for endpoint determination. The percent of the growth of the treated cells was determined in comparison to the untreated control cells and the results of each tested compound were reported. Data from one-dose experiments pertain to the percentage growth at 10 μM [16, 17, 18].

SN12C = assay: NCI-60 one-dose screen (renal cancer); conditions: 10 µM single dose, 48 h
Method: as §1

A498 = assay: NCI-60 one-dose screen (renal cancer); conditions: 10 µM single dose, 48 h
Method: as §1

786-0 = assay: NCI-60 one-dose screen (renal cancer); conditions: 10 µM single dose, 48 h
Method: as §1

UO-31 [2] = assay: NCI-60 one-dose screen (renal cancer); conditions: 10 µM single dose, 48 h
Method: as §1

ACHN = assay: NCI-60 one-dose screen (renal cancer); conditions: 10 µM single dose, 48 h
Method: as §1

HCT-116 = assay: NCI-60 five-dose assay (colon cancer); conditions: 48 h, SRB
IGROV1 = assay: NCI-60 five-dose assay (ovarian cancer); conditions: SRB
SF-539 = assay: NCI-60 five-dose assay (CNS cancer); conditions: 48 h, SRB
K-562 [3] = assay: NCI-60 five-dose assay (leukemia); conditions: SRB
M14 = assay: NCI-60 five-dose assay (melanoma); conditions: 48 h, SRB
MDA-MB-435 = assay: NCI-60 five-dose assay (melanoma); conditions: 48 h, SRB
SW-620 [4] = assay: NCI-60 five-dose assay (colon cancer); conditions: 48 h, SRB
HT29 = assay: NCI-60 five-dose assay (colon cancer); conditions: SRB
UO-31 [5] = assay: NCI-60 five-dose assay (renal cancer); conditions: 48 h, SRB
HCT-15 = assay: NCI-60 five-dose assay (colon cancer); conditions: 48 h, SRB
COLO 205 [6] = assay: NCI-60 five-dose assay (colon cancer); conditions: 48 h, SRB
U251 = assay: NCI-60 five-dose assay (CNS cancer); conditions: SRB
DU-145 = assay: NCI-60 five-dose assay (prostate cancer); conditions: 48 h, SRB
KM12 [7] = assay: NCI-60 one-dose screen (colon cancer); conditions: 10 µM single dose, 48 h
COLO 205 [8] = assay: NCI-60 one-dose screen (colon cancer); conditions: 10 µM single dose, 48 h
SW-620 [9] = assay: NCI-60 one-dose screen (colon cancer); conditions: 10 µM single dose, 48 h
HL-60(TB) [10] = assay: NCI-60 five-dose assay (leukemia); conditions: 48 h, SRB
SF-295 = assay: NCI-60 five-dose assay (CNS cancer); conditions: 48 h, SRB
TK-10 [11] = assay: NCI-60 five-dose assay (renal cancer); conditions: 48 h, SRB
MOLT-4 = assay: NCI-60 one-dose screen (leukemia); conditions: 10 µM single dose, 48 h
Method: as §1

CCRF-CEM = assay: NCI-60 one-dose screen (leukemia); conditions: 10 µM single dose, 48 h
Method: as §1

K-562 [12] = assay: NCI-60 one-dose screen (leukemia); conditions: 10 µM single dose, 48 h
Method: as §1

SR = assay: NCI-60 one-dose screen (leukemia); conditions: 10 µM single dose, 48 h
Method: as §1

HL-60(TB) [13] = assay: NCI-60 one-dose screen (leukemia); conditions: 10 µM single dose, 48 h
Method: as §1

RPMI-8226 = assay: NCI-60 one-dose screen (leukemia); conditions: 10 µM single dose, 48 h
Method: as §1

KM12 [14] = assay: NCI-60 five-dose assay (colon cancer); conditions: 48 h, SRB
UACC-257 = assay: NCI-60 five-dose assay (melanoma); conditions: 48 h, SRB
OVCAR-4 = assay: NCI-60 five-dose assay (ovarian cancer); conditions: 48 h, SRB
SK-MEL-28 = assay: NCI-60 five-dose assay (melanoma); conditions: 48 h, SRB
A549/ATCC = assay: NCI-60 five-dose assay (non-small cell lung cancer); conditions: 48 h, SRB
OVCAR-8 = assay: NCI-60 five-dose assay (ovarian cancer); conditions: 48 h, SRB
[15] = Homo sapiens, read-out: LC50 (the source's name)

**Q.** Which results are given for `COc1ccccc1NC1=C(Cl)C(=O)c2nc(C)ccc2C1=O` [AQQ1]?
**A.** GP (growth percentage) (TK-10 [1]): 147.78%; GP (growth percentage) (SN12C): −49.46%; GP (growth percentage) (A498): 71.81%; GP (growth percentage) (786-0): 9.17%; GP (growth percentage) (UO-31 [2]): −65.68%; GP (growth percentage) (ACHN): −99.93%; TGI (HCT-116): 4.16 µM; GI50 (HCT-116; Homo sapiens): 1.53 µM; LC50 (HCT-116; Homo sapiens): 44.3 µM; TGI (IGROV1; 48 h): 2.92 µM; GI50 (IGROV1; Homo sapiens, IGROV-1, 48 h): 1.46 µM; LC50 (IGROV1; Homo sapiens, IGROV-1, 48 h): 5.86 µM; TGI (SF-539): 3.13 µM; GI50 (SF-539; Homo sapiens): 1.68 µM; LC50 (SF-539; Homo sapiens): 5.81 µM; TGI (K-562 [3]; 48 h): 2.94 µM; GI50 (K-562 [3]; Homo sapiens, K562, 48 h): 0.29 µM; LC50 (K-562 [3]; Homo sapiens, K562, 48 h): > 100 µM; TGI (M14): 3.81 µM; GI50 (M14; Homo sapiens): 1.82 µM; LC50 (M14; Homo sapiens): 7.96 µM; TGI (MDA-MB-435): 3.11 µM; GI50 (MDA-MB-435; Homo sapiens): 1.7 µM; CC50 (MDA-MB-435; [15]): 5.67 µM; TGI (SW-620 [4]): 3.73 µM; GI50 (SW-620 [4]; Homo sapiens): 1.84 µM; LC50 (SW-620 [4]; Homo sapiens): 7.56 µM; TGI (HT29; 48 h): 4.49 µM; GI50 (HT29; Homo sapiens, HT-29, 48 h): 2.13 µM; LC50 (concentration killing 50% of cells) (HT29; Homo sapiens, HT-29, 48 h): 9.46 µM; TGI (UO-31 [5]): 2.73 µM; GI50 (UO-31 [5]; Homo sapiens): 1.42 µM; LC50 (lethal concentration 50%) (UO-31 [5]; Homo sapiens): 5.26 µM; TGI (HCT-15): 3.02 µM; GI50 (HCT-15; Homo sapiens): 1.33 µM; CC50 (HCT-15; [15]): 6.83 µM; TGI (COLO 205 [6]): 3.87 µM; GI50 (COLO 205 [6]; Homo sapiens): 1.78 µM; TGI (U251; 48 h): 3.73 µM; GI50 (U251; Homo sapiens, U-251, 48 h): 1.85 µM; LC50 (concentration killing 50% of cells) (U251; Homo sapiens, U-251, 48 h): 7.53 µM; TGI (DU-145): 3.11 µM; GI50 (DU-145; Homo sapiens): 1.72 µM; CC50 (DU-145; [15]): 5.62 µM; GP (growth percentage) (KM12 [7]): 69.40%; GP (growth percentage) (COLO 205 [8]): 111.34%; GP (growth percentage) (SW-620 [9]): −63.13%; TGI (HL-60(TB) [10]): 3.52 µM; GI50 (HL-60(TB) [10]; Homo sapiens): 1.37 µM; CC50 (HL-60(TB) [10]; [15]): 9.03 µM; TGI (SF-295): 3.42 µM; GI50 (SF-295; Homo sapiens): 1.85 µM; LC50 (50% lethal concentration) (SF-295; Homo sapiens): 6.32 µM; TGI (TK-10 [11]): 3.86 µM; GI50 (TK-10 [11]; Homo sapiens): 2.34 µM; LC50 (concentration killing 50% of starting cells) (TK-10 [11]; Homo sapiens): 6.36 µM; GP (growth percentage) (MOLT-4): −39.00%; GP (growth percentage) (CCRF-CEM): −4.94%; GP (growth percentage) (K-562 [12]): −21.12%; GP (growth percentage) (SR): −27.92%; GP (growth percentage) (HL-60(TB) [13]): −48.05%; GP (growth percentage) (RPMI-8226): −30.44%; TGI (KM12 [14]): 3.08 µM; GI50 (KM12 [14]; Homo sapiens): 1.49 µM; CC50 (KM12 [14]; [15]): 6.4 µM; TGI (UACC-257): 3.09 µM; GI50 (UACC-257; Homo sapiens): 1.57 µM; LC50 (NCI-60 lethal concentration, 50% cell kill) (UACC-257; Homo sapiens): 6.11 µM; TGI (OVCAR-4): 2.49 µM; GI50 (OVCAR-4; Homo sapiens): 1.21 µM; LC50 (concentration killing 50% of cells) (OVCAR-4; Homo sapiens): 5.11 µM; TGI (SK-MEL-28): 3.34 µM; GI50 (SK-MEL-28; Homo sapiens): 1.85 µM; LC50 (SK-MEL-28; Homo sapiens): 6.02 µM; TGI (A549/ATCC): 6.24 µM; GI50 (A549/ATCC; Homo sapiens): 2.44 µM; CC50 (A549/ATCC; [15]): 45.2 µM; TGI (OVCAR-8): 3.25 µM; GI50 (OVCAR-8; Homo sapiens): 1.61 µM; CC50 (OVCAR-8; [15]): 6.59 µM
